# Measurements: ChEMBL document CHEMBL3774331, “Inhibition of tau aggregation using a naturally-occurring cyclic peptide scaffold” (Eur J Med Chem, 2016)
# Active and inactive are the calls of the source. The rule behind the calls is not given here. Where a SMILES comes first, the peptide text is derived from it. Bridges are numbered along the chain shown (N, C = ends).
# Tested on: not listed separately
# Experiment: Binding affinity to thioflavin S at compound:AcPHF6 ratio of 1:1 to 1:64 incubated for 120 mins by fluorescence assay
row,SMILES,Activity
1,CC(C)[C@H](NC(=O)CN)C(=O)N[C@H]1CSSC[C@@H](C(=O)N[C@@H](CCCNC(=N)N)C(=O)N[C@@H](CCCNC(=N)N)C(=O)O)NC(=O)[C@@H](C(C)C)NC(=O)C2CSSCC(NC(=O)[C@H](CCCNC(=N)N)NC1=O)C(=O)N[C@@H](C(C)C)C(=O)N[C@H]1CSSC[C@H](NC(=O)[C@H](C(C)C)NC(=O)CNC(=O)[C@H](CCCNC(=N)N)NC(=O)[C@H](CCCNC(=N)N)NC1=O)C(=O)N[C@@H](CCCNC(=N)N)C(=O)N2,Active

# Tested on: not listed separately
# Experiment: Activation of TAU derived synthetic hexapeptide AcPHF6 fibril formation at compound:AcPHF6 ratio of 1:1 to 1:64 incubated for 60 mins by thioflavin S fluorescence assay
row,SMILES,Activity
1,CC(C)[C@H](NC(=O)CN)C(=O)N[C@H]1CSSC[C@@H](C(=O)N[C@@H](CCCNC(=N)N)C(=O)N[C@@H](CCCNC(=N)N)C(=O)O)NC(=O)[C@@H](C(C)C)NC(=O)C2CSSCC(NC(=O)[C@H](CCCNC(=N)N)NC1=O)C(=O)N[C@@H](C(C)C)C(=O)N[C@H]1CSSC[C@H](NC(=O)[C@H](C(C)C)NC(=O)CNC(=O)[C@H](CCCNC(=N)N)NC(=O)[C@H](CCCNC(=N)N)NC1=O)C(=O)N[C@@H](CCCNC(=N)N)C(=O)N2,Active

# Tested on: not listed separately
# Experiment: Inhibition of TAU derived synthetic hexapeptide AcPHF6 fibril formation incubated for 60 mins by thioflavin T fluorescence assay
row,SMILES,inhibition
1,CC[C@H](C)[C@@H]1NC(=O)[C@H](CCC(N)=O)NC(=O)[C@H](C(C)C)NC(=O)CNC(=O)[C@H]2CCCN2C(=O)[C@H](C(C)C)NC(=O)[C@H](C)N(C)C(=O)[C@H]([C@@H](C)CC)NC(=O)[C@@H]2CSSC[C@H](NC1=O)C(=O)N[C@@H](Cc1ccc(O)cc1)C(=O)N[C@@H](CCCCN)C(=O)N[C@@H](CO)C(=O)N[C@@H]([C@@H](C)CC)C(=O)N1CCC[C@H]1C(=O)N1CCC[C@H]1C(=O)N[C@@H]([C@@H](C)CC)C(=O)N2,Dose-dependent effect

# Tested on: not listed separately
# Experiment: Inhibition of TAU derived synthetic hexapeptide AcPHF6 fibril formation at compound:AcPHF6 ratio of 1:1 to 1:64 incubated for 60 mins by thioflavin S fluorescence assay
row,SMILES,inhibition
1,CC[C@H](C)[C@@H]1NC(=O)[C@H](CCC(N)=O)NC(=O)[C@H](C(C)C)NC(=O)CNC(=O)[C@H](CC(=O)O)NC(=O)[C@@H]2CCCN2C(=O)[C@H](C(C)C)NC(=O)[C@H](CCCCN)NC(=O)[C@H]([C@@H](C)CC)NC(=O)[C@@H]2CSSC[C@H](NC1=O)C(=O)N[C@@H](Cc1ccc(O)cc1)C(=O)N[C@@H](CCCCN)C(=O)N[C@@H](CO)C(=O)N[C@@H]([C@@H](C)CC)C(=O)N1CCC[C@H]1C(=O)N1CCC[C@H]1C(=O)NCC(=O)N2 (cyclo(CIKVPDGVQICYKSIPPG); disulfide 1-11),Active
2,CC[C@@H](C)[C@@H]1NC(=O)[C@@H]2CSSC[C@H](NC(=O)[C@@H]([C@H](C)CC)NC(=O)CNC(=O)[C@H]3CCCN3C1=O)C(=O)N[C@H](Cc1ccc(O)cc1)C(=O)N[C@H](CCCCN)C(=O)N[C@H](CO)C(=O)N[C@H]([C@H](C)CC)C(=O)N1CCC[C@H]1C(=O)N1CCC[C@H]1C(=O)NCC(=O)N2,Active
3,CC[C@@H](C)[C@H]1NC(=O)[C@@H]2CCCN2C(=O)[C@@H]2CCCN2C(=O)[C@H]([C@@H](C)CC)NC(=O)[C@H](CO)NC(=O)[C@H](CC(N)=O)NC(=O)[C@H](CCC(=O)O)NC(=O)[C@@H]2CSSC[C@H](NC1=O)C(=O)N[C@@H](CCC(N)=O)C(=O)N[C@H](CCCCN)C(=O)N[C@H](CC(C)C)C(=O)N1CCC[C@H]1C(=O)N[C@H](CC(=O)O)C(=O)NCC(=O)N[C@H](CC(C)C)C(=O)N[C@@H](Cc1ccc(O)cc1)C(=O)N[C@H](CCC(N)=O)C(=O)N2,Active
4,CC[C@H](C)[C@@H]1NC(=O)[C@H](CCC(=O)O)NC(=O)[C@@H]2CCCN2C(=O)[C@H](Cc2cnc[nH]2)NC(=O)[C@H](CC(=O)O)NC(=O)[C@H](Cc2ccc(O)cc2)NC(=O)[C@H](CC(N)=O)NC(=O)[C@H]2CSSC[C@H](NC(=O)CN)C(=O)N[C@@H](CSSC[C@@H](C(=O)NCC(=O)NCC(=O)N[C@@H](C)C(=O)NCC(=O)NCC(=O)O)NC1=O)C(=O)N[C@H](CO)C(=O)N[C@@H](CC(=O)O)C(=O)N1CCC[C@H]1C(=O)N[C@H](CCCNC(=N)N)C(=O)N2,inactive
5,CC[C@H](C)[C@@H]1NC(=O)[C@H](C)NC(=O)CNC(=O)[C@@H]2CCCN2C(=O)[C@@H]2CCCN2C(=O)[C@H]([C@@H](C)CC)NC(=O)[C@H](CO)NC(=O)[C@H](CCCCN)NC(=O)[C@H](Cc2ccc(O)cc2)NC(=O)[C@H](C)NC(=O)[C@H]([C@@H](C)CC)NC(=O)[C@H](CCC(N)=O)NC(=O)[C@H](C(C)C)NC(=O)CNC(=O)[C@H](CC(=O)O)NC(=O)[C@@H]2CCCN2C(=O)[C@H](C(C)C)NC(=O)[C@H](CCCCN)NC1=O (cyclo(AIKVPDGVQIAYKSIPPG)),Active
6,CC[C@H](C)[C@@H]1NC(=O)[C@@H]2CCCN2C(=O)[C@@H]2CCCN2C(=O)[C@H]([C@@H](C)CC)NC(=O)[C@H](CO)NC(=O)[C@H](C)NC(=O)[C@H]([C@@H](C)O)NC(=O)[C@@H]2CSSC[C@H](NC1=O)C(=O)N[C@@H](Cc1ccccc1)C(=O)N1CCC[C@H]1C(=O)N[C@@H](CC(=O)O)C(=O)NCC(=O)N[C@@H](CCCNC(=N)N)C(=O)N2 (cyclo(ASIPPICFPDGRCT); disulfide 7-13),Active
7,CC[C@H](C)[C@@H]1NC(=O)[C@H](CCC(N)=O)NC(=O)[C@H](C(C)C)NC(=O)CNC(=O)[C@H]2CCCN2C(=O)[C@H](C(C)C)NC(=O)[C@H](CCCCN)NC(=O)[C@H]([C@@H](C)CC)NC(=O)[C@@H]2CSSC[C@H](NC1=O)C(=O)N[C@@H](Cc1ccc(O)cc1)C(=O)N[C@@H](CCCCN)C(=O)N[C@@H](CO)C(=O)N[C@@H]([C@@H](C)CC)C(=O)N1CCC[C@H]1C(=O)N1CCC[C@H]1C(=O)NCC(=O)N2,Active
8,CC[C@H](C)[C@@H]1NC(=O)[C@@H]2CSSC[C@H](NC(=O)[C@H]([C@@H](C)CC)NC(=O)[C@H](CCC(N)=O)NC(=O)[C@@H]3CCCN3C(=O)[C@@H]3CCCN3C(=O)[C@H](C)NC1=O)C(=O)N[C@@H](Cc1ccc(O)cc1)C(=O)N[C@@H](CCCCN)C(=O)N[C@@H](CO)C(=O)N[C@@H]([C@@H](C)CC)C(=O)N1CCC[C@H]1C(=O)N1CCC[C@H]1C(=O)NCC(=O)N2 (cyclo(APPQICYKSIPPGCI); disulfide 6-14),Active
9,CC[C@H](C)[C@@H]1NC(=O)[C@H](CCC(N)=O)NC(=O)[C@H](C(C)C)NC(=O)CNC(=O)[C@H](CC(=O)O)NC(=O)[C@@H]2CCCN2C(=O)[C@H](C(C)C)NC(=O)[C@H](CCCCN)NC(=O)[C@H]([C@@H](C)CC)NC(=O)[C@@H]2CSSC[C@H](NC1=O)C(=O)N[C@@H](Cc1ccc(O)cc1)C(=O)N[C@@H](CCCCN)C(=O)N[C@@H](CO)C(=O)N[C@@H]([C@@H](C)CC)C(=O)N1CCC[C@H]1C(=O)N1CCC[C@H]1C(=O)N[C@@H]([C@@H](C)CC)C(=O)N2 (cyclo(CIKVPDGVQICYKSIPPI); disulfide 1-11),Active
10,CC[C@H](C)[C@@H]1NC(=O)[C@@H]2CSSC[C@H](NC(=O)[C@H]([C@@H](C)CC)NC(=O)[C@H](CCC(N)=O)NC(=O)[C@H](C(C)C)NC(=O)CNC(=O)[C@H]3CCCN3C(=O)[C@H](C(C)C)NC(=O)[C@H](C)NC1=O)C(=O)N[C@@H](Cc1ccc(O)cc1)C(=O)N[C@@H](CCCCN)C(=O)N[C@@H](CO)C(=O)N[C@@H]([C@@H](C)CC)C(=O)N1CCC[C@H]1C(=O)N1CCC[C@H]1C(=O)N[C@@H]([C@@H](C)CC)C(=O)N2,Active
11,CC[C@H](C)[C@@H]1NC(=O)[C@@H]2CCCN2C(=O)[C@@H]2CCCN2C(=O)[C@H]([C@@H](C)CC)NC(=O)[C@H](CO)NC(=O)[C@H](Cc2ccccc2)NC(=O)[C@H](CC(N)=O)NC(=O)[C@@H]2CSSC[C@H](NC1=O)C(=O)N[C@@H](CCC(N)=O)C(=O)N[C@@H](CCCCN)C(=O)N[C@@H](CO)C(=O)N1CCC[C@H]1C(=O)N[C@@H](CC(=O)O)C(=O)NCC(=O)N[C@@H](CO)C(=O)N[C@@H](CC(N)=O)C(=O)N[C@@H](CCC(N)=O)C(=O)N2 (cyclo(CNFSIPPICQKSPDGSNQ); disulfide 1-9),Active
12,CC[C@H](C)[C@@H]1NC(=O)[C@H](CCC(N)=O)NC(=O)[C@H](C(C)C)NC(=O)CNC(=O)[C@H]2CCCN2C(=O)[C@H](C(C)C)NC(=O)[C@H](C)NC(=O)[C@H](Cc2ccccc2)NC(=O)[C@@H]2CSSC[C@H](NC1=O)C(=O)N[C@@H](Cc1ccc(O)cc1)C(=O)N[C@@H](CCCCN)C(=O)N[C@@H](CO)C(=O)N[C@@H]([C@@H](C)CC)C(=O)N1CCC[C@H]1C(=O)N1CCC[C@H]1C(=O)N[C@@H]([C@@H](C)CC)C(=O)N2,Active
13,CC[C@H](C)[C@@H]1NC(=O)[C@H](CCC(N)=O)NC(=O)[C@H](C(C)C)NC(=O)CNC(=O)[C@H]2CCCN2C(=O)[C@H](C(C)C)NC(=O)[C@H](CCC(N)=O)NC(=O)[C@H]([C@@H](C)CC)NC(=O)[C@@H]2CSSC[C@H](NC1=O)C(=O)N[C@@H](Cc1ccc(O)cc1)C(=O)N[C@@H](CCCCN)C(=O)N[C@@H](CO)C(=O)N[C@@H]([C@@H](C)CC)C(=O)N1CCC[C@H]1C(=O)N1CCC[C@H]1C(=O)N[C@@H]([C@@H](C)CC)C(=O)N2,Active
14,CC[C@H](C)[C@@H]1NC(=O)[C@@H]2CCCN2C(=O)[C@@H]2CCCN2C(=O)[C@H]([C@@H](C)CC)NC(=O)[C@H](CO)NC(=O)[C@H](CCCCN)NC(=O)[C@H]([C@@H](C)O)NC(=O)[C@H](C)NC(=O)[C@H](CCCNC(=N)N)NC(=O)CNC(=O)[C@H](CC(=O)O)NC(=O)[C@@H]2CCCN2C(=O)[C@H](Cc2ccccc2)NC(=O)[C@H](C)NC1=O (cyclo(AFPDGRATKSIPPI)),Active
15,CC(C)C[C@H](NC(=O)CN)C(=O)N1CCC[C@H]1C(=O)N[C@H](C(=O)N[C@@H]1CSSC[C@H]2NC(=O)CNC(=O)[C@@H]3CCCN3C(=O)[C@H]([C@@H](C)O)NC(=O)[C@@H](CC(N)=O)NC(=O)[C@H]3CSSC[C@H](C(=O)N[C@@H](C(=O)N[C@H](CCCNC(=N)N)C(=O)N[C@@H](CC(N)=O)C(=O)O)[C@@H](C)O)NC(=O)[C@H](C(C)C)NC(=O)[C@H]4CCCN4C(=O)[C@@H](Cc4c[nH]c5ccccc45)NC(=O)[C@H](CO)NC(=O)[C@@H](CSSC[C@@H](NC(=O)[C@@H]([C@@H](C)O)NC(=O)[C@@H](CCC(=O)O)NC(=O)CNC1=O)C(=O)N[C@@H](C(C)C)C(=O)NCC(=O)NCC(=O)N[C@@H]([C@@H](C)O)C(=O)N3)NC(=O)[C@@H]([C@H](C)O)NC2=O)C(C)C,Active
16,CC[C@H](C)[C@@H]1NC(=O)[C@H](CCC(N)=O)NC(=O)[C@H](C(C)C)NC(=O)CNC(=O)[C@H]2CCCN2C(=O)[C@H](C(C)C)NC(=O)[C@H](C)N(C)C(=O)[C@H]([C@@H](C)CC)NC(=O)[C@H](C)NC(=O)[C@H]([C@@H](C)CC)NC(=O)[C@@H]2CCCN2C(=O)[C@@H]2CCCN2C(=O)[C@H]([C@@H](C)CC)NC(=O)[C@H](CO)NC(=O)[C@H](CCCCN)NC(=O)[C@H](Cc2ccc(O)cc2)NC(=O)[C@H](C(C)C)NC1=O,Active

# Tested on: Serum
# Experiment: Stability in 100% human serum at 30 uM after 24 hrs
# Type: ADME
row,SMILES,Stability
1,CC[C@H](C)[C@@H]1NC(=O)[C@H](CCC(N)=O)NC(=O)[C@H](C(C)C)NC(=O)CNC(=O)[C@H](CC(=O)O)NC(=O)[C@@H]2CCCN2C(=O)[C@H](C(C)C)NC(=O)[C@H](CCCCN)NC(=O)[C@H]([C@@H](C)CC)NC(=O)[C@@H]2CSSC[C@H](NC1=O)C(=O)N[C@@H](Cc1ccc(O)cc1)C(=O)N[C@@H](CCCCN)C(=O)N[C@@H](CO)C(=O)N[C@@H]([C@@H](C)CC)C(=O)N1CCC[C@H]1C(=O)N1CCC[C@H]1C(=O)NCC(=O)N2 (cyclo(CIKVPDGVQICYKSIPPG); disulfide 1-11),Stable
2,CC[C@H](C)[C@@H]1NC(=O)[C@H](C)NC(=O)CNC(=O)[C@@H]2CCCN2C(=O)[C@@H]2CCCN2C(=O)[C@H]([C@@H](C)CC)NC(=O)[C@H](CO)NC(=O)[C@H](CCCCN)NC(=O)[C@H](Cc2ccc(O)cc2)NC(=O)[C@H](C)NC(=O)[C@H]([C@@H](C)CC)NC(=O)[C@H](CCC(N)=O)NC(=O)[C@H](C(C)C)NC(=O)CNC(=O)[C@H](CC(=O)O)NC(=O)[C@@H]2CCCN2C(=O)[C@H](C(C)C)NC(=O)[C@H](CCCCN)NC1=O (cyclo(AIKVPDGVQIAYKSIPPG)),Stable
